Laboratory results reported in patent US20120076811A1 (priority 2009, published 2012).
Entries after “also recorded” stand apart in the source; their conditions may differ.

Tests used:
[1] = test system: lymphoid cells from type II collagen immunized DR1 transgenic mice; type: cell-based, mouse
[2] = target: HA259-274 specific CD4+ T cells from DR1 transgenic mice immunized with H5N1-rHA1 protein/CFA (T cel)
[3] = target: HA259-274 specific CD4+ T cells from DR1 transgenic mice immunized with H5N1-rHA1 protein/CFA (T cel); remark: listed apart in the source
[4] = target: CD4+ CD44+ cells from CFA only immunized DR1 transgenic mice (T cell receptors on cells)
[5] = test system: lymphoid cells from rHA1 immunized DR1 transgenic mice; type: cell-based, mouse
[6] = test system: lymphoid cells from H5N1-rHA1 immunized DR1 transgenic mice; type: cell-based, mouse
[7] = test system: lymphoid cells from H5N1-rHA1 immunized DR1 transgenic mice; type: cell-based, mouse; remark: listed apart in the source
[8] = test system: lymphoid cells from H5N1-rHA1 immunized DR1 transgenic mice; type: cell-based, mouse; remark: listed apart in the source

Substance	proliferative response ([3H]thymidine incorporation) [5]	proliferation response ([3H]thymidine incorporation) [6]	IFN-γ production in culture supernatant [7]	also measured
AGFKGEQGPKGEPGP [CII280-294]				proliferative response ([3H]thymidine incorporation) [1]: Strong dose dependent responses
HA259-274/DR1 tetramers (from UniProt P01903 26-216) (peptide-MHC)				fold increased staining against control CLIP/DR1 tetramers [2]: 30 fold; tetramer positive population [2]: 3%; tetramer positive population (% of the CD4+ CD44+ cells) [3]: 0.1; tetramer positive cells [4]: 0.01%
INSSLPYQNIHPVTIGECPKY [HA298-317]	significantly lower; also recorded: no response			
KMRMATPLLMQALPM [CLIP89-105]		not	not	
PKYVKQNTLKLAT [HA306-318]	Strong dose dependent responses			
SNGNFIAPEYAYKIVK [HA259-274]		Strong dose dependent proliferation responses	positive cytokine production	IL-2 production in culture supernatant [8]: positive cytokine production
